Assay results reported in patent US12180159B2, “Activators of the unfolded protein response” (The Board of Trustees of the University of Illinois, priority 2018, dated 2024).

What was measured:
MCF-7 cells = assay type: cell-based
Procedure: (§1) FIG. 36. Discovery of SERK-F6 (also known as, C(−)-105, (−)-105, (R)-105, (−)-1, or (R)-1), a compound that kills ERα-positive cancer cells. a, Chemical structures of BHPI and racemic compound 1 (i.e. (±)-1), and their cytotoxic activity on T47D breast cancer cells after 24-hour incubations with concentrations as indicated in nM. Cells were stained with annexin V-FITC and PI dyes prior to analysis via flow cytometry. […] Cells were incubated with SERK-F6 or positive control, Raptinal, for 24 hours and then stained with annexin V-FITC and PI dyes and analyzed via flow cytometry. Error bars represent S.E.M of 3 independent replicates. c, IC50 values of SERK-F6 after 24-hour incubation against a panel of cancer cell lines grouped by their reported ERα status. Cell viability was measured by Alamar blue fluorescence and set relative to a vehicle control and a quantitative dead control treated with Raptinal. Error bars represent S.E.M of 3 independent experiments. d, Crystal violet staining of T47D cells after 24-hour incubations with compounds and concentrations as indicated. […] Cell number was determined by MTS.
(§2) Through a medicinal chemistry campaign, (±)-1 was discovered to show an unexpected cytotoxic phenotype (FIG. 36A). […] The dose dependent activity of SERK-F6 was determined against a panel of cancer cell lines (FIG. 36C and FIG. 37A) for ERα.

MDA-MB-231 cells = experiment: Cell death of MDA-MB-231 cells (annexin V-FITC / PI flow cytometry); assay type: cell-based, human; settings: 24 hours
Procedure: as §1, §2

TDG cells (T47DERαD538G) = experiment: Trypan Blue exclusion cell death assay, TDG cells; assay type: cell-based, human; settings: dose response, 24 hours, TDG-Luc cells
Text: TRYPAN BLUE: For decades, viable cells have been measured by their ability to exclude the dye Trypan Blue. […] Dead cells, which have lost membrane integrity, take up the dye and are blue. Thus, the percentage of dead cells is the percentage of cells that are Trypan Blue positive out of the total cell population. Quantitative assessment of Trypan Blue uptake uses a cell counter from Fisher. Since the assay is instrument based, there is no observer bias in determining the percentage of Trypan Blue positive cells.
TRYPAN BLUE ASSAYS: Assays are performed on cells in 6 well plates: 300,000 cells are plated in each well of a 6 well plate in 3 ml of medium. After 24 hours, the DMSO vehicle or the indicated compound is added (in 1000th of the vol.) The cells incubated for an additional 24 hours, and then harvested in 0.25 ml of trypsin, followed after harvest by 0.75 ml of medium. The cells are spun down and resuspended in 100-200 μl of medium left that is over the cell pellet (resuspend cells by pipetting up and down a few times). Add 10 μl to 10 μl of trypan blue. Then 10 μl is inserted into the counting slide. After inserting the slide into the Fisher TC20 counting is automatic (these many cells are needed because an accurate ratio of Trypan Blue positive to Trypan Blue negative cells requires about 200 cells in the field the instrument counts).
The Trypan Blue cell death assay was used to evaluate the ability of the active enantiomer of C-105 [(−)-105] to kill ERα positive TDG-Luc cells. For all studies, 300,000 TDG-Luc cells/well in 10% FBS were plated in a 6 well plate in triplicate. 24 hours after plating, the indicated concentrations the active enantiomer of (−)-105, or BHPI (top) ICI, or OHT (Lower left) or (+)-105 (lower right) were added. After 24 hours, the cells were harvested, and the % dead cells was determined by automated Trypan Blue exclusion using the Countess II automated hemocytometer. Percentage of viable cells was calculated by doing 100−(Cell Death %). (n=3±SEM).
TDG cells were incubated for 24 hours with 75 nM of BHPI or 75 nM of each of the indicated test compounds: 4, 6 and (±)-105 (enantiomers not separated). Cell death was determined using the instrument-based Trypan Blue exclusion assay. Structures are in the Synthesis section. […] (n=3±SEM).

[1] = test system: MYS and MDG cells (MCF-7 with Y537S or D538G ERα); experiment: MYS-luc / MDG-luc orthotopic and metastatic tumor models; assay type: in vivo, mouse
Text: FIG. 41. […]
FIG. 43. SERK-F6-mediated eradication of MYS/MDG tumors is dependent on quantitative cell killing. a-b, MYS-luc. orthotopic tumors were established in NSG ovariectomized mice (no E2 pellet, ˜45 days to establish) and dosed daily as indicated (n=5-6). b, Treatment of MYS-luc. tumors were stopped after 21 daily doses of SERK-F6 and mice tumor burden was tracked via bioluminescence. […]

O=C1Nc2c(C(F)(F)F)cccc2C1(c1ccc(O)cc1)c1ccc(OC(F)(F)F)cc1 (single isomer, unassigned; (-)) [(−)-105, 3-(4-hydroxyphenyl)-3-(4-(trifluoromethoxy)phenyl)-7-(trifluoromethyl)indolin-2-one]
cytotoxicity to ERα positive MCF-7 cells (MCF-7 cells): cytotoxic | death of MCF-7 cells (MCF-7 cells; FIG. 10): induces dose-dependent death | effects in ERα negative MDA-MB-231 cells (MDA-MB-231 cells): minimal effects | killing of TDG-Luc cells (TDG cells (T47DERαD538G)): superior to BHPI | effect on metastatic tumor burden ([1]; metastatic model): eradicates metastatic tumor burden | effect on MYS / MDG tumors ([1]; mouse, in vivo): Dramatic tumor regressions
